Counter-ions that a name gives are not always drawn.
Assays:
[1] = target: histamine H3 receptor (Homo sapiens, UniProt Q9Y5N1); assay: Histamine H3 functional antagonist assay ([35S]GTPγS binding, SPA, membranes of CHO K1 cells); conditions: pKb, antagonism of 0.3 μM histamine, membranes with human H3 receptor
Description: Ligated DNA was transformed into competent DH5α E. coli host bacterial cells and plated onto Luria Broth (LB) agar containing Zeocin™ (an antibiotic which allows the selection of cells expressing the sh ble gene which is present on pGene and pSwitch) at 50 μg ml^−1. Colonies containing the re-ligated plasmid were identified by restriction analysis. DNA for transfection into mammalian cells was prepared from 250 ml cultures of the host bacterium containing the pGeneH3 plasmid and isolated using a DNA preparation kit (Qiagen Midi-Prep) as per manufacturers guidelines (Qiagen).
CHO K1 cells previously transfected with the pSwitch regulatory plasmid (InVitrogen) were seeded at 2×10e6 cells per T75 flask in Complete Medium, containing Hams F12 (GIBCOBRL, Life Technologies) medium supplemented with 10% v/v dialysed foetal bovine serum, L-glutamine, and hygromycin (100 μg ml^−1), 24 hours prior to use. Plasmid DNA was transfected into the cells using Lipofectamine plus according to the manufacturers guidelines (InVitrogen). 48 hours post transfection cells were placed into complete medium supplemented with 500 μg ml^−1 Zeocin™
10-14 days post selection 10 nM Mifepristone (InVitrogen), was added to the culture medium to induce the expression of the receptor. […] Approximately 1×10e7 cells were examined for receptor expression by staining with a rabbit polyclonal antibody, 4a, raised against the N-terminal domain of the histamine H3 receptor, incubated on ice for 60 minutes, followed by two washes in sorting medium. […] Following two further washes with Sorting Medium, cells were filtered through a 50 μm Filcon™ (BD Biosciences) and then analysed on a FACS Vantage SE Flow Cytometer fitted with an Automatic Cell Deposition Unit. […] Positively stained cells were sorted as single cells into 96-well plates, containing Complete Medium containing 500 μg ml^−1 Zeocin™ and allowed to expand before reanalysis for receptor expression via antibody and ligand binding studies.
(ii) Membrane Preparation from Cultured Cells
All steps of the protocol are carried out at 4° C. and with pre-cooled reagents. The cell pellet is resuspended in 10 volumes of buffer A2 containing 50 mM N-2-hydroxyethylpiperazine-N′-2-ethanesulfonic acid (HEPES) (pH 7.40) supplemented with 10e-4M leupeptin (acetyl-leucyl-leucyl-arginal; Sigma L2884), 25 μg/ml bacitracin (Sigma B0125), 1 mM ethylenediamine tetra-acetic acid (EDTA), 1 mM phenylmethylsulfonyl fluoride (PMSF) and 2×10e-6M pepstain A (Sigma). The cells are then homogenised by 2×15 second bursts in a 1 liter glass Waring blender, followed by centrifugation at 500 g for 20 minutes. The supernatant is then spun at 48,000 g for 30 minutes. The pellet is resuspended in 4 volumes of buffer A2 by vortexing for 5 seconds, followed by homogenisation in a Dounce homogeniser (10-15 strokes). At this point the preparation is aliquoted into polypropylene tubes and stored at −70° C.
(II) Histamine H3 Functional Antagonist Assay
The plate is then incubated on a shaker at room temperature for 30 minutes followed by centrifugation for 5 minutes at 1500 rpm. The plate is read between 3 and 6 hours after completion of centrifuge run in a Wallac Microbeta counter on a 1 minute normalised tritium count protocol. Data is analysed using a 4-parameter logistic equation. Basal activity used as minimum i.e. histamine not added to well.

[2] = target: T1, human H1 receptor (Homo sapiens, UniProt P35367); assay: Histamine H1 functional antagonist assay (FLIPR, histamine induced increase in fluorescence); type: cell-based; conditions: Chinese hamster ovary cells stably expressing the human H1 receptor; read-out: antagonism pKb, histamine H1 functional antagonist assay (converted)
T1 construct: expressed in transfected cells
Description: (iii) Generation of Histamine H1 Cell Line
The human H1 receptor was cloned using known procedures described in the literature [Biochem. Biophys. Res. Commun.
(III) Histamine H1 Functional Antagonist Assay
Compounds are assayed in a black walled clear bottom 384-well plate with cells seeded at 10000 cells/well. […] Each well is treated with 10 μl of a solution of FLUO4AM (10 μM in Tyrodes buffer at pH 7.40) and plates are then incubated for 60 minutes at 37° C. Wells are then washed with Tyrodes buffer using a EMBLA cell washer system, leaving 400 buffer in each well, and then treated with 100 of test compound in Tyrodes buffer. Each plate is incubated for 30 min to allow equilibration of the test compound with the receptor. Each well is then treated with 100 of histamine solution in Tyrodes buffer.
Functional antagonism is indicated by a suppression of histamine induced increase in fluorescence, as measured by the FLIPR system (Molecular Devices). By means of concentration effect curves, functional potencies are determined using standard pharmacological mathematical analysis.

Chain of histamine H3 receptor (Q9Y5N1 whole entry): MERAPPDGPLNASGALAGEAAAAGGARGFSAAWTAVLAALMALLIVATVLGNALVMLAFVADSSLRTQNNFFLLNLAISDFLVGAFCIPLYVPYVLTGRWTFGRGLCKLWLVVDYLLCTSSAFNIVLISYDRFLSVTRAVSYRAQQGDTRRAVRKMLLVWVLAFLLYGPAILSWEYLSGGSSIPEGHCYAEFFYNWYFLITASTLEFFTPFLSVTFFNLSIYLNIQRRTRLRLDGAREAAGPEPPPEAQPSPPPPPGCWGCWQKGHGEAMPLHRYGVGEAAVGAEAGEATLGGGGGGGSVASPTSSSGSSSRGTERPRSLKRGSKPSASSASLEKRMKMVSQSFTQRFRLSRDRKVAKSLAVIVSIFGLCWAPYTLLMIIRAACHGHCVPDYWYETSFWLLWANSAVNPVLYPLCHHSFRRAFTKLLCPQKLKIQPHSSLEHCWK
T1 sequence (P35367 whole entry): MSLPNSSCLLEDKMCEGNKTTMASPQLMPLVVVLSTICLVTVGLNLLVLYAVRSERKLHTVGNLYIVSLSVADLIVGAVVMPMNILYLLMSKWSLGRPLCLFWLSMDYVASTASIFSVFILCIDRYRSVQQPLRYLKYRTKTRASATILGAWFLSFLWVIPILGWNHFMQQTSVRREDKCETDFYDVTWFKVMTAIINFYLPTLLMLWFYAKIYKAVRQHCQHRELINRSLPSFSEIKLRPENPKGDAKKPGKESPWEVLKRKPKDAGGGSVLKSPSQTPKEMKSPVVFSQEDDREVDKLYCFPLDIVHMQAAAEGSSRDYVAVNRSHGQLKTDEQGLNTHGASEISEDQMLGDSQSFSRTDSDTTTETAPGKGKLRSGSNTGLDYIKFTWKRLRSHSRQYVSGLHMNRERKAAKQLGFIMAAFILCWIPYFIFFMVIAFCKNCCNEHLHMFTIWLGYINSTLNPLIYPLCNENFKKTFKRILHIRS

Structure (SMILES): O=C(c1ccc(N2CCS(=O)(=O)CC2)cc1)N1CCCN(C2CCC2)CC1 [Example 9, 1-Cyclobutyl-4-{[4-(1,1-dioxido-4-thiomorpholinyl)phenyl]carbonyl}hexahydro-1H-1,4-diazepine hydrochloride]
- Kb [1]: ≤ 1 nM
- Kb [2]: > 1000 nM

Structure (SMILES): CC(C)N1CCCN(C(=O)c2ccc(-c3ccc(C#N)nc3)cc2)CC1 [Example 15, 5-(4-{[4-(1-Isopropyl)hexahydro-1H-1,4-diazepin-1-yl]carbonyl}phenyl)-2-cyanopyridine hydrochloride]
- Kb [2]: > 1000 nM

Structure (SMILES): N#Cc1ccc(-c2ccc(C(=O)N3CCCN(C4CCC4)CC3)cc2)cc1 [Example 1, 4′-[(4-Cyclobutylhexahydro-1H-1,4-diazepin-1-yl)carbonyl]-4-biphenylcarbonitrile hydrochloride]
- Kb [1]: < 0.316 nM
- Kb [2]: > 1000 nM

Structure (SMILES): CC(C)N1CCCN(C(=O)c2ccc(OC3CCOCC3)cc2)CC1 [Example 10, 1-(Isopropyl)-4-{[4-(tetrahydro-2H-pyran-4-yloxy)phenyl]carbonyl}hexahydro-1H-1,4-diazepine hydrochloride]
- Kb [2]: > 1000 nM

Structure (SMILES): O=C(c1ccc(-c2ncco2)cc1)N1CCCN(C2CCC2)CC1 [Example 56, 1-Cyclobutyl-4-{[4-(1,3-oxazol-2-yl)phenyl]carbonyl}hexahydro-1H-1,4-diazepine hydrochloride]
- Kb [1]: ≤ 1 nM

Structure (SMILES): O=C(c1ccc(-c2nc(-c3ccc(F)cc3)cs2)cc1)N1CCCN(C2CCC2)CC1 [Example 8, 1-Cyclobutyl-4-({4-[4-(4-fluorophenyl)-1,3-thiazol-2-yl]phenyl}carbonyl) hexahydro-1H-1,4-diazepine hydrochloride]
- Kb [1]: ≤ 1 nM
- Kb [2]: > 1000 nM

Structure (SMILES): N#Cc1ccc(-c2ccc(C(=O)N3CCCN(C4CCC4)CC3)cc2)cn1 [Example 14, 5-{4-[(4-Cyclobutylhexahydro-1H-1,4-diazepin-1-yl)carbonyl]phenyl}-2-cyanopyridine hydrochloride]
- Kb [1]: ≤ 1 nM
- Kb [2]: > 1000 nM

Structure (SMILES): Cc1noc(-c2ccc(C(=O)N3CCCN(C4CCC4)CC3)cc2)n1 [Example 58, 1-Cyclobutyl-4-{[4-(3-methyl-1,2,4-oxadiazol-5-yl)phenyl]carbonyl}hexahydro-4H-1,4-diazepine hydrochloride]
- Kb [1]: < 0.316 nM

Structure (SMILES): N#Cc1ccc(-c2ccc(C(=O)N3CCCN(C4CCC4)CC3)cc2)nc1 [Example 12, 6-{4-[(4-Cyclobutylhexahydro-1H-1,4-diazepin-1-yl)carbonyl]phenyl}-3-cyanopyridine hydrochloride]
- Kb [1]: < 0.316 nM
- Kb [2]: > 1000 nM

Structure (SMILES): O=C(c1ccc(-n2cnnn2)cc1)N1CCCN(C2CCC2)CC1 [Example 7, 1-Cyclobutyl-4-{[4-tetrazol-1-yl)phenyl]carbonyl}hexahydro-1H-1,4-diazepine hydrochloride]
- Kb [1]: ≤ 1 nM
- Kb [2]: > 1000 nM

Structure (SMILES): O=C(c1ccc(-c2ccc(C(F)(F)F)nn2)cc1)N1CCCN(C2CCC2)CC1 [Example 22, 1-Cyclobutyl-4-({4-[6-(trifluoromethyl)-3-pyridazinyl]phenyl}carbonyl)hexahydro-1H-1,4-diazepine hydrochloride]
- Kb [1]: ≤ 1 nM
- Kb [2]: > 1000 nM

Structure (SMILES): CNC(=O)c1ccc(-c2ccc(C(=O)N3CCCN(C(C)C)CC3)cc2)cn1 [Example 16, N-Methyl-5-(4-{[4-(1-isopropyl)hexahydro-1H-1,4-diazepin-1-yl]carbonyl}phenyl)-2-pyridinecarboxamide hydrochloride]
- Kb [1]: ≤ 1 nM
- Kb [2]: > 1000 nM

Structure (SMILES): O=C(c1ccc(-c2cnc(C(F)(F)F)nc2)cc1)N1CCCN(C2CCC2)CC1 [Example 23, 1-Cyclobutyl-4-({4-[2-(trifluoromethyl)-5-pyrimidinyl]phenyl}carbonyl)hexahydro-1H-1,4-diazepine hydrochloride]
- Kb [1]: ≤ 1 nM
- Kb [2]: > 1000 nM

Structure (SMILES): O=C(c1ccc(-c2ccc(C(F)(F)F)nc2)cc1)N1CCCN(C2CCC2)CC1 [Example 11, 1-Cyclobutyl-4-({4-[6-(trifluoromethyl)-3-pyridinyl]phenyl}carbonyl)hexahydro-1H-1,4-diazepine hydrochloride]
- Kb [1]: < 0.316 nM
- Kb [2]: > 1000 nM

Structure (SMILES): CNC(=O)c1ccc(-c2ccc(C(=O)N3CCCN(C4CCC4)CC3)cc2)cn1 [Example 13, 5-{4-[(4-Cyclobutylhexahydro-1H-1,4-diazepin-1-yl)carbonyl]phenyl}-N-methyl-2-pyridinecarboxamide hydrochloride]
- Kb [1]: ≤ 1 nM
- Kb [2]: > 1000 nM

Structure (SMILES): CC(=O)c1ccc(-c2ccc(C(=O)N3CCCN(C4CCC4)CC3)cc2)cc1 [Example 2, 1-{4′-[(4-Cyclobutylhexahydro-1H-1,4-diazepin-1-yl)carbonyl]-4-biphenylyl}ethanone hydrochloride]
- Kb [1]: < 0.316 nM
- Kb [2]: > 1000 nM

From patent US8492375B2, “1-benzoyl substituted diazepine derivatives as selective histamine H3 receptor agonists” (Glaxo Group Limited, priority 2003, dated 2013)
